{"source": "patent US5358712A", "about": "“Radiopharmaceutical agents for the detection of Alzheimer's disease” (Regents of the University of Minnesota, priority 1993, dated 1994)", "key": {"vesamicol receptor": {"test_system": "vesamicol receptor", "assay": "Blocking experiments: inhibition of radiotracer accumulation in the rat by coadministered compound", "type": "in vivo, rat (male Wistar)", "conditions": "rat, 60 min; for Brain: Blood Ratio / Heart: Blood Ratio / radioactivity in liver: iv", "method": "*Animals in group 1 received an iv injection of (+)4-[^125 l]HIPP\nonly. For groups 2, 3, and 4, the radiotracer was coadministered with the\nhydrochlorides of (+)7 (0.53 mg/kg), (-)7 (0.53 mg/kg) and vesamicol (0.3\nFour groups of male Wistar rats (n=3) were used in these experiments. All animals received an iv dose of 8-10 μCi of the radiotracer in 0.1 ml of 50% aq. ethanol. Additionally, in groups 2, 3 and 4, the radiotracer was coadministered with (+)-HBrPP.HCl(1.3 μmol/kg), (-)-HBrPP.HCl(1.3 μmol/kg) and (dl)-vesamicol hydrochloride (1.1 μmol/kg), respectively. At 60 min. post-injection, blood was collected by cardiac puncture and the animals sacrificed as described above. The data was analyzed as outlined above.\nNOTE: The dose of radiotracer injected was 5-7 mCi. Group I was the\ncontrol, injected with the radiotracer only. Group II included the\nsimultaneous injection of \"cold\"(dl)3-HIPP (HCl) (0.53 mg/kg). Group III\nincluded the simultaneous injection of (dl) vesamicol (HCl) (0.31 mg/kg).\nAll rats were sacrificed at one hour postinjection.\nNOTE: Group I was the control, injected with the radiotracer only. Group\nII included the simultaneous injection of \"cold\"(dl)3-HIPP (HCl) (0.53\nmg/kg). Group III included the simultaneous injection of (dl) vesamicol\nhydrochloride (0.31 mg/kg). The dose of radiotracer was 8-9 μCi. All\nrats were sacrificed at one hour postinjection.\nNOTE: Group I received (+)[^125 l]13 only. Group II received the (+)\nradiotracer coinjected with 0.31 mg/kg (dl)vesamicol hydrochloride. Group\nIII received (-)[^125 l]13 only. Group IV received the (-) radiotrace\ncoinjected with 0.31 mg/kg (dl)vesamicol hydrochloride. All animals were\nsacrificed at one hour postinjection. The dose of radiotracer injected pe"}, "rat brain": {"test_system": "rat brain", "assay": "Ex vivo autoradiographic studies, regional distribution in the rodent brain", "set-up": "species or system rat (male Wistar)", "conditions": "3 hours", "method": "Four male Wistar rats weighing 300-330 g. were anesthetized with diethyl ether. While under anesthesia two animals each received an intravenous dose of 300 μCi of (-)-4-[^125 I]HIPP in […] of 50% aqueous ethanol. The second pair of animals received an iv dose of (+)-4-[^125I]HIPP (170 μCi) in the same solvent. The animals were sacrificed by decapitation three hours following radiotracer administration. The brains were harvested, embedded in Tissue Tek OCT embedding medium and frozen to -38° C. Twenty-micron thick brain sections were obtained at -15° C. using a Reicheft HistoSTAT cryostat microtome. The sections were dried and opposed to Kodak NMC film for autoradiography accompanied by external standards (^125 I-labelled microscales from Amersham). Images were subsequently digitized based on the linear scale obtained from these standards."}, "[1]": {"assay": "Tissue distribution (biodistribution) of radioiodinated compound in the rat", "conditions": "for Brain: Blood Ratio / Heart: Blood Ratio / radioactivity in blood / radioactivity in brain / radioactivity in heart / radioactivity in kidney / radioactivity in liver / radioactivity in lung / radioactivity in muscle / radioactivity in spleen: iv"}, "[2]": {"conditions": "coadministered blocker, listed as (-)-[^125 I]5"}, "[3]": {"conditions": "+ (dl)-vesamicol HCl 0.3 (Table 3) or 0.31 mg/kg"}}, "data": [{"smiles": "OC(Cc1ccc([125I])cc1)CN1CCC(c2ccccc2)CC1", "note": "(single isomer, unassigned; (-)) [(-)-4-[^125 l]HIPP] [2-Hydroxy-3-(4-iodophenyl)-1-(4-phenylpiperidyl)propane]", "values": [{"measurement": "reduction of accumulation of radioactivity in the brain", "setting": "vesamicol receptor; [2]", "result": 70, "unit": "%"}, {"measurement": "reduction of accumulation of radioactivity in the heart", "setting": "vesamicol receptor; [2]", "result": 84, "unit": "%"}, {"measurement": "Brain: Blood Ratio", "setting": "vesamicol receptor; + (+)-7 HCl 0.53 mg/kg", "result": 5.6}, {"measurement": "Heart: Blood Ratio", "setting": "vesamicol receptor; + (+)-7 HCl 0.53 mg/kg", "result": 2.5}, {"measurement": "radioactivity in liver", "setting": "vesamicol receptor; + (+)-7 HCl 0.53 mg/kg", "result": "2.87 % dose/g of tissue"}, {"measurement": "Brain: Blood Ratio", "setting": "vesamicol receptor; + (-)-7 HCl 0.53 mg/kg", "result": 7.1}, {"measurement": "Heart: Blood Ratio", "setting": "vesamicol receptor; + (-)-7 HCl 0.53 mg/kg", "result": 3.0}, {"measurement": "radioactivity in liver", "setting": "vesamicol receptor; + (-)-7 HCl 0.53 mg/kg", "result": "1.90 % dose/g of tissue"}, {"measurement": "Brain: Blood Ratio", "setting": "vesamicol receptor; [3]", "result": 12.7}, {"measurement": "Heart: Blood Ratio", "setting": "vesamicol receptor; [3]", "result": 4.9}, {"measurement": "Brain: Blood Ratio", "setting": "vesamicol receptor; radiotracer only (control)", "result": 42.7}, {"measurement": "Heart: Blood Ratio", "setting": "vesamicol receptor; radiotracer only (control)", "result": 36.5}, {"measurement": "radioactivity in cerebellar molecular layer relative to granular layer", "setting": "rat brain", "result": "slightly higher concentration"}, {"measurement": "radioactivity in frontal cortex and caudate-putamen", "setting": "rat brain", "result": "Moderate levels"}, {"measurement": "radioactivity in pineal gland and nuclei of fifth and seventh cranial nerves", "setting": "rat brain", "result": "highest levels"}, {"measurement": "radioactivity in the white matter", "setting": "rat brain", "result": "relatively low"}, {"measurement": "injected dose found in the brain", "setting": "[1]; rat, 5 minutes post injection, listed as (-)-[^125 I]5", "result": "1.94 % of the injected dose"}, {"measurement": "injected dose found in the heart", "setting": "[1]; rat, 5 minutes post-injection, listed as (-)-[^125 I]5", "result": "1.2 % of the injected dose"}, {"measurement": "reduction of injected dose in the heart", "setting": "[1]; rat, 5 minutes to 3 hours", "result": 50, "unit": "%"}, {"measurement": "injected dose found in the heart", "setting": "[1]; rat, after 3 hours", "result": "0.59 % of the injected dose"}, {"measurement": "concentration of radioactivity in the brain over time", "setting": "[1]; rat, duration of the study (3 hours), listed as (-)-[^125 I]5", "result": "remained essentially stable"}, {"measurement": "Brain: Blood Ratio", "setting": "[1]; rat, 5 min", "result": 12.3}, {"measurement": "Heart: Blood Ratio", "setting": "[1]; rat, 5 min", "result": 16.4}, {"measurement": "radioactivity in blood", "setting": "[1]; rat, 5 min", "result": 0.09, "unit": "% dose/g"}, {"measurement": "radioactivity in brain", "setting": "[1]; rat, 5 min", "result": 1.03, "unit": "% dose/g"}, {"measurement": "radioactivity in heart", "setting": "[1]; rat, 5 min", "result": 1.32, "unit": "% dose/g"}, {"measurement": "radioactivity in kidney", "setting": "[1]; rat, 5 min", "result": 2.89, "unit": "% dose/g"}, {"measurement": "radioactivity in liver", "setting": "[1]; rat, 5 min", "result": 1.33, "unit": "% dose/g"}, {"measurement": "radioactivity in lung", "setting": "[1]; rat, 5 min", "result": 8.62, "unit": "% dose/g"}, {"measurement": "radioactivity in muscle", "setting": "[1]; rat, 5 min", "result": 0.35, "unit": "% dose/g"}, {"measurement": "radioactivity in spleen", "setting": "[1]; rat, 5 min", "result": 0.87, "unit": "% dose/g"}, {"measurement": "Brain: Blood Ratio", "setting": "[1]; rat, 30 min", "result": 31.3}, {"measurement": "Heart: Blood Ratio", "setting": "[1]; rat, 30 min", "result": 26.8}, {"measurement": "radioactivity in blood", "setting": "[1]; rat, 30 min", "result": 0.03, "unit": "% dose/g"}, {"measurement": "radioactivity in brain", "setting": "[1]; rat, 30 min", "result": 0.94, "unit": "% dose/g"}, {"measurement": "radioactivity in heart", "setting": "[1]; rat, 30 min", "result": 0.74, "unit": "% dose/g"}, {"measurement": "radioactivity in kidney", "setting": "[1]; rat, 30 min", "result": 2.23, "unit": "% dose/g"}, {"measurement": "radioactivity in liver", "setting": "[1]; rat, 30 min", "result": 2.28, "unit": "% dose/g"}, {"measurement": "radioactivity in lung", "setting": "[1]; rat, 30 min", "result": 4.80, "unit": "% dose/g"}, {"measurement": "radioactivity in muscle", "setting": "[1]; rat, 30 min", "result": 0.19, "unit": "% dose/g"}, {"measurement": "radioactivity in spleen", "setting": "[1]; rat, 30 min", "result": 1.09, "unit": "% dose/g"}, {"measurement": "Brain: Blood Ratio", "setting": "[1]; rat, 60 min", "result": 55.5}, {"measurement": "Heart: Blood Ratio", "setting": "[1]; rat, 60 min", "result": 40.3}, {"measurement": "radioactivity in blood", "setting": "[1]; rat, 60 min", "result": 0.02, "unit": "% dose/g"}, {"measurement": "radioactivity in brain", "setting": "[1]; rat, 60 min", "result": 0.98, "unit": "% dose/g"}, {"measurement": "radioactivity in heart", "setting": "[1]; rat, 60 min", "result": 0.72, "unit": "% dose/g"}, {"measurement": "radioactivity in kidney", "setting": "[1]; rat, 60 min", "result": 1.85, "unit": "% dose/g"}, {"measurement": "radioactivity in liver", "setting": "[1]; rat, 60 min", "result": 2.0, "unit": "% dose/g"}, {"measurement": "radioactivity in lung", "setting": "[1]; rat, 60 min", "result": 3.33, "unit": "% dose/g"}, {"measurement": "radioactivity in muscle", "setting": "[1]; rat, 60 min", "result": 0.18, "unit": "% dose/g"}, {"measurement": "radioactivity in spleen", "setting": "[1]; rat, 60 min", "result": 1.40, "unit": "% dose/g"}, {"measurement": "Brain: Blood Ratio", "setting": "[1]; rat, 180 min", "result": 69.7}, {"measurement": "Heart: Blood Ratio", "setting": "[1]; rat, 180 min", "result": 42.5}, {"measurement": "radioactivity in blood", "setting": "[1]; rat, 180 min", "result": 0.01, "unit": "% dose/g"}, {"measurement": "radioactivity in brain", "setting": "[1]; rat, 180 min", "result": 0.94, "unit": "% dose/g"}, {"measurement": "radioactivity in heart", "setting": "[1]; rat, 180 min", "result": 0.57, "unit": "% dose/g"}, {"measurement": "radioactivity in kidney", "setting": "[1]; rat, 180 min", "result": 1.63, "unit": "% dose/g"}, {"measurement": "radioactivity in liver", "setting": "[1]; rat, 180 min", "result": 2.43, "unit": "% dose/g"}, {"measurement": "radioactivity in lung", "setting": "[1]; rat, 180 min", "result": 2.52, "unit": "% dose/g"}, {"measurement": "radioactivity in muscle", "setting": "[1]; rat, 180 min", "result": 0.16, "unit": "% dose/g"}, {"measurement": "radioactivity in spleen", "setting": "[1]; rat, 180 min", "result": 1.21, "unit": "% dose/g"}, {"measurement": "level of radioactivity in the blood", "setting": "[1]; rat, throughout the study", "result": "low"}, {"measurement": "brain retention (in words)", "setting": "[1]; rodent (and monkey)", "result": "comparable retention"}]}]}
